# Values quoted from earlier work in patent publication US20240077492A1, “ARRAY-BASED PEPTIDE LIBRARIES FOR THERAPEUTIC ANTIBODY CHARACTERIZATION” (Cowper Sciences Inc., priority 2016, published 2024).
# Settings: background statement
substance,measurement,value
Remicade: one of the most prescribed antibody therapeutics,effective in fraction of the patient population,25%
